According to patent publication US20220281848A1, “PYRAZOLE-SUBSTITUTED PYRROLIDINONES AS HERBICIDES” (FMC Corporation, priority 2019, published 2022):

Test system: plants
Assay: Test D pre-emergence, other plants of Tables D1 and D3
Assay type: in vivo
Settings: pre-emergence, 100=total damage, 0=no damage
Procedure: A formulation containing 50 g/L of the test chemical was prepared by dissolving the active ingredient in a mixture of organic solvents and emulsifier, details of which are provided in the table. This formulation was then mixed with a small, variable amount of acetone to aid dissolution, before addition of a 0.2% v/v aqueous solution of an adjuvant, as the aqueous diluent, to form an aqueous spray solution which contains a predetermined concentration of the active ingredient.
This aqueous spray solution was then sprayed onto plants including maize and wheat that had been seed treated with a herbicide safener, after one day's cultivation (for pre-emergence) or after about 12 days' cultivation (for post-emergence). The plants were grown from seeds sown in standard soil, placed in a glasshouse under controlled conditions (at 24/18° C. or 20/16° C., day/night; 16 h light; 65% humidity). After spray application the plants were then grown in a glasshouse under the same conditions and watered twice daily. After 15 d for post-emergence and 20 DAA for pre-emergence the test was evaluated (100=total damage to plant; 0=no damage to plant).

With `CN1CC(c2cc(C(F)(F)F)n(C)n2)C(C(=O)Nc2ccc(F)cc2F)C1=O` (racemic) [Compound 6] the “damage to plant, ALOMY” value (rate 15, 20 DAA) was 0, the “damage to plant, AVEFA” value (rate 15, 20 DAA) was 0 and the “damage to plant, BEAVA” value (rate 15, 20 DAA) was 0. For the same molecule, the “damage to plant, BROTE” value (rate 15, 20 DAA) was 0, the “damage to plant, BRSNN” value (rate 15, 20 DAA) was 0 and the “damage to plant, CHEAL” value (rate 15, 20 DAA) was 0. The “damage to plant, GALAP” value (rate 15, 20 DAA) was 0, the “damage to plant, HORVW” value (rate 15, 20 DAA) was 0 and the “damage to plant, KCHSC” value (rate 15, 20 DAA) was 0. The “damage to plant, LOLPE” value (rate 15, 20 DAA) was 0, the “damage to plant, POAAN” value (rate 15, 20 DAA) was 0 and the “damage to plant, POLCO” value (rate 15, 20 DAA) was 0. The “damage to plant, SINAR” value (rate 15, 20 DAA) was 0, the “damage to plant, STEME” value (rate 15, 20 DAA) was 0 and the “damage to plant, VERPE” value (rate 15, 20 DAA) was 0. The “damage to plant, ALOMY” value (rate 30, 20 DAA) was 0, the “damage to plant, AVEFA” value (rate 30, 20 DAA) was 0 and the “damage to plant, BEAVA” value (rate 30, 20 DAA) was 0. For the same molecule, the “damage to plant, BROTE” value (rate 30, 20 DAA) was 0, the “damage to plant, BRSNN” value (rate 30, 20 DAA) was 0 and the “damage to plant, CHEAL” value (rate 30, 20 DAA) was 0. For the same molecule, the “damage to plant, GALAP” value (rate 30, 20 DAA) was 0, the “damage to plant, HORVW” value (rate 30, 20 DAA) was 0 and the “damage to plant, KCHSC” value (rate 30, 20 DAA) was 0. For the same molecule, the “damage to plant, LOLPE” value (rate 30, 20 DAA) was 0, the “damage to plant, POAAN” value (rate 30, 20 DAA) was 0 and the “damage to plant, POLCO” value (rate 30, 20 DAA) was 0. For the same molecule, the “damage to plant, SINAR” value (rate 30, 20 DAA) was 0, the “damage to plant, STEME” value (rate 30, 20 DAA) was 0 and the “damage to plant, VERPE” value (rate 30, 20 DAA) was 0. The “damage to plant, ALOMY” value (rate 60, 20 DAA) was 0, the “damage to plant, AVEFA” value (rate 60, 20 DAA) was 0 and the “damage to plant, BEAVA” value (rate 60, 20 DAA) was 0. The “damage to plant, BROTE” value (rate 60, 20 DAA) was 0, the “damage to plant, BRSNN” value (rate 60, 20 DAA) was 0 and the “damage to plant, CHEAL” value (rate 60, 20 DAA) was 0. For the same molecule, the “damage to plant, GALAP” value (rate 60, 20 DAA) was 0, the “damage to plant, HORVW” value (rate 60, 20 DAA) was 0 and the “damage to plant, KCHSC” value (rate 60, 20 DAA) was 0. For the same molecule, the “damage to plant, LOLPE” value (rate 60, 20 DAA) was 0, the “damage to plant, POAAN” value (rate 60, 20 DAA) was 0 and the “damage to plant, POLCO” value (rate 60, 20 DAA) was 0. For the same molecule, the “damage to plant, SINAR” value (rate 60, 20 DAA) was 0, the “damage to plant, STEME” value (rate 60, 20 DAA) was 0 and the “damage to plant, VERPE” value (rate 60, 20 DAA) was 0. The “damage to plant, ALOMY” value (rate 130, 20 DAA) was 0, the “damage to plant, AVEFA” value (rate 130, 20 DAA) was 0 and the “damage to plant, BEAVA” value (rate 130, 20 DAA) was 0. For the same molecule, the “damage to plant, BROTE” value (rate 130, 20 DAA) was 0, the “damage to plant, BRSNN” value (rate 130, 20 DAA) was 0 and the “damage to plant, CHEAL” value (rate 130, 20 DAA) was 0. For the same molecule, the “damage to plant, GALAP” value (rate 130, 20 DAA) was 0, the “damage to plant, HORVW” value (rate 130, 20 DAA) was 0 and the “damage to plant, KCHSC” value (rate 130, 20 DAA) was 0. The “damage to plant, LOLPE” value (rate 130, 20 DAA) was 0, the “damage to plant, POAAN” value (rate 130, 20 DAA) was 10 and the “damage to plant, POLCO” value (rate 130, 20 DAA) was 0. For the same molecule, the “damage to plant, SINAR” value (rate 130, 20 DAA) was 0, the “damage to plant, STEME” value (rate 130, 20 DAA) was 0 and the “damage to plant, VERPE” value (rate 130, 20 DAA) was 0. The “damage to plant, ALOMY” value (rate 250, 20 DAA) was 0, the “damage to plant, AVEFA” value (rate 250, 20 DAA) was 0 and the “damage to plant, BEAVA” value (rate 250, 20 DAA) was 0. The “damage to plant, BROTE” value (rate 250, 20 DAA) was 0, the “damage to plant, BRSNN” value (rate 250, 20 DAA) was 0 and the “damage to plant, CHEAL” value (rate 250, 20 DAA) was 10. The “damage to plant, GALAP” value (rate 250, 20 DAA) was 10, the “damage to plant, HORVW” value (rate 250, 20 DAA) was 10 and the “damage to plant, KCHSC” value (rate 250, 20 DAA) was 0. For the same molecule, the “damage to plant, LOLPE” value (rate 250, 20 DAA) was 20, the “damage to plant, POAAN” value (rate 250, 20 DAA) was 20 and the “damage to plant, POLCO” value (rate 250, 20 DAA) was 0. For the same molecule, the “damage to plant, SINAR” value (rate 250, 20 DAA) was 0, the “damage to plant, STEME” value (rate 250, 20 DAA) was 10 and the “damage to plant, VERPE” value (rate 250, 20 DAA) was 10. The “damage to plant, ALOMY” value (rate 500, 20 DAA) was 40, the “damage to plant, AVEFA” value (rate 500, 20 DAA) was 20 and the “damage to plant, BEAVA” value (rate 500, 20 DAA) was 0. For the same molecule, the “damage to plant, BROTE” value (rate 500, 20 DAA) was 0, the “damage to plant, BRSNN” value (rate 500, 20 DAA) was 0 and the “damage to plant, CHEAL” value (rate 500, 20 DAA) was 20. For the same molecule, the “damage to plant, GALAP” value (rate 500, 20 DAA) was 20, the “damage to plant, HORVW” value (rate 500, 20 DAA) was 20 and the “damage to plant, KCHSC” value (rate 500, 20 DAA) was 10. The “damage to plant, LOLPE” value (rate 500, 20 DAA) was 30, the “damage to plant, POAAN” value (rate 500, 20 DAA) was 70 and the “damage to plant, POLCO” value (rate 500, 20 DAA) was 0. For the same molecule, the “damage to plant, SINAR” value (rate 500, 20 DAA) was 10, the “damage to plant, STEME” value (rate 500, 20 DAA) was 10 and the “damage to plant, VERPE” value (rate 500, 20 DAA) was 20.
